Laboratory results: PubChem BioAssay AID1996
Converted amounts (≈) assume the structure as drawn.

conditions: buffer; pH 7.4; 200.0 µM

| SMILES | solubility kinetic [µg/mL] |
| --- | --- |
| CCOc1ccc2oc(C(=O)NCC(C)(C)CN(C)C)c(C)c2c1.Cl | 48.4 |
| O=C(Nc1ccncc1)c1ccc(N2CCCC2=O)cc1 | > 42.2 |
| COc1ccc(CCNC(=O)Cc2ccc(C)cc2)cc1OC | > 47 |
| CC(=O)/C(C=Nc1noc(C)c1Br)=C(\C)O | 37.6 (≈ 131 µM) |
| CC(C)(C)c1ccc(S(=O)(=O)NCC2CCCO2)cc1 (configuration not stated) | 34.9 (≈ 117 µM) |
| Cc1cccc(C(=O)OCCN2CCOCC2)c1.Cl | > 42.9 |
| Cn1c(=O)c2c(O)c(Cc3ccccc3)c(=O)n(C)c2n(C)c1=O | 36 (≈ 110 µM) |
| COc1ccc(-c2onc(C)c2-c2ccc3c(c2)OCCO3)c(O)c1 | 2.6 (≈ 7.66 µM) |
| O=C(c1ccc([N+](=O)[O-])cc1)N1CCN(C(=O)c2cccnc2)CC1 | > 51.1 |
| CC(=O)Nc1ccc(/C=C/c2ccc3c([N+](=O)[O-])cccc3n2)cc1 | 16.2 (≈ 48.6 µM) |
| COc1ccc(C(=O)COC(=O)c2ccccn2)cc1OC | 44.5 (≈ 148 µM) |
| CCC(C)(CC(=O)Nc1nccs1)c1ccccc1 (configuration not stated) | > 41.2 |
| O=C(COc1ccccc1[N+](=O)[O-])NCCC1=CCCCC1 | 31.8 (≈ 104 µM) |
| Cc1cc(C)c2nc(NCc3ccccc3O)sc2c1 | < 0.3 |
| CCCCN(C)C(=O)c1nc2ccccn2c1CN1CCSCC1 | 48.3 (≈ 139 µM) |
| O=C(NC1CCCC1)c1ccccc1OCc1ccccc1 | 15 (≈ 50.8 µM) |
| Cc1ccc(S(=O)(=O)N2CCOCC2)cc1NCC(=O)Nc1ccc(OC(F)(F)F)cc1 | 3 (≈ 6.34 µM) |
| CCc1sc(C(=O)NC(C)C2CCCO2)cc1Br (configuration not stated) | 49.5 (≈ 149 µM) |
| Cc1ccnc(NC(=O)CNC(=O)c2ccccc2Br)c1 | 48.5 (≈ 139 µM) |
| O=[N+]([O-])c1cc(CS(=O)(=O)Oc2ccc(Cl)cc2)c(O)c([N+](=O)[O-])c1 | > 58.3 |
| O=C(NC1CCCCC1)c1ccc(N2CCOCC2)c([N+](=O)[O-])c1 | > 50 |
| CSc1nsc(SCC(=O)Nc2cccc(C(=O)O)c2)n1 | > 51.2 |
| CCCN(Cc1ccccc1)C(=S)Nc1ccc(OCC)cc1 | 17.9 (≈ 54.5 µM) |
| CCC(NS(=O)(=O)c1cccs1)c1ccc(C)cc1 (configuration not stated) | > 44.3 |

| SMILES | solubility kinetic [µg/mL] |
| --- | --- |
| CCOc1nc(-c2ccccc2)c2cc(C)ccc2n1 | 4.8 (≈ 18.2 µM) |
| CC(C)N1C(=O)C(=O)N(CC(=O)N2CCc3ccccc32)C1=O | > 47.3 |
| Cc1cc(=O)c(C(=O)O)nn1-c1cccc(C(F)(F)F)c1 | > 44.7 |
| Cc1ncn2cc(-c3ccc(Cl)cc3Cl)[nH]c(=O)c12 | 2.8 (≈ 9.52 µM) |
| CC(C)(C)c1ccc(C(=O)NC(=O)CSc2n[nH]c(N)n2)cc1 | > 50 |
| O=C(COC(=O)COc1ccc(Cl)cc1)NC1CCCCCC1 | 8.1 (≈ 23.8 µM) |
| COc1ccccc1CCNS(=O)(=O)c1ccc(C(=O)O)n1C | > 50.8 |
| COc1ccc(NS(=O)(=O)c2ccc3oc(=S)[nH]c3c2)cc1 | > 50.5 |
| COCCNC(=O)C(NC(=O)C1CCCCC1)C12CC3CC(CC(C3)C1)C2 (configuration not stated) | 5.5 (≈ 14.6 µM) |
| Cc1ccc(NC(=O)c2cc(CC(C)C)nc3ccccc23)cc1 | 0.6 (≈ 1.88 µM) |
| CC(C(=O)N1CCc2ccccc21)N1CCN(Cc2ccccc2)CC1 (configuration not stated) | > 52.4 |
| Cc1ccccc1N(Cc1cc(=O)[nH]c2ccccc12)C(=O)C(C)C | 36 (≈ 108 µM) |
| CN(C(=O)CCc1nc2ccccc2c(=O)[nH]1)C1CCS(=O)(=O)C1 (configuration not stated) | > 52.4 |
| CC(=O)Nc1cc(O)cc(O)c1 | > 25.1 |
| Cc1ccc(NC(=S)NCCCN2CCOCC2)cc1C | > 46.1 |
| c1ccc(C2CCC(N3CCN(c4ccccc4)CC3)CC2)cc1 (configuration not stated) | 1.3 (≈ 4.06 µM) |
| O=c1[nH]c2cccnc2n1-c1cccc([N+](=O)[O-])c1 | 17 (≈ 66.3 µM) |
| CSCC[C@H](NC(=O)Nc1ccc(Oc2ccccc2)cc1)C(=O)O | > 54.1 |
| CC(C)(C)C(=O)Nc1nc2cc3c(cc2s1)OCO3 | 0.6 (≈ 2.16 µM) |
| CC(C)(C)OC(=O)N1CCCN(C(=O)Nc2ccc(C(F)(F)F)cc2)CC1 | 53.8 (≈ 139 µM) |
| COc1ccc(C)cc1S(=O)(=O)Nc1ccc2c(c1)OCCO2 | 4.1 (≈ 12.2 µM) |
| CN(C)Cc1c(O)ccc2c1O/C(=C\C=C\c1ccccc1)C2=O | 46.8 (≈ 146 µM) |
| COc1cccc(NC(=O)COc2cccnc2[N+](=O)[O-])c1 | 5.8 (≈ 19.1 µM) |
| Cc1cc(C)cc(NC(=O)C2CC3CCC2C3)c1 (configuration not stated) | 6.8 (≈ 27.9 µM) |

| SMILES | solubility kinetic [µg/mL] |
| --- | --- |
| c1ccc(-c2cc3ccccc3[nH]2)cc1 | 0.7 (≈ 3.62 µM) |
| COc1ccccc1NC(=O)Cn1cc(C(=O)c2ccco2)c2ccccc21 | 1.2 (≈ 3.21 µM) |
| N#CC1=C(N)Oc2cc(O)c(Cl)cc2C1c1cccnc1 (configuration not stated) | 11.2 (≈ 37.4 µM) |
| O=C(NC(Cc1c[nH]c2ccccc12)C(=O)O)c1ccc2c(c1)OCO2 (configuration not stated) | > 52.9 |
| Cc1ccccc1OC(C)C(=O)Nc1cccnc1 (configuration not stated) | 36.6 (≈ 143 µM) |
| Nc1ccc2nc(COc3ccccc3)[nH]c2c1 | 12.4 (≈ 51.8 µM) |
| O=C(Nc1ccccc1-c1ccccc1)c1ccccc1[N+](=O)[O-] | 16.8 (≈ 52.8 µM) |
| Cc1cc(C(=O)N/N=C/c2cn(C)nc2C)c2ccccc2n1 | > 46.1 |
| CCCCN(C(=O)c1ccncc1)c1c(N)n(CCC)c(=O)[nH]c1=O | 37.1 (≈ 107 µM) |
| CCOc1ccc(NC(=S)NC23CN4CN(CN(C4)C2)C3)cc1 | > 50 |
| CCN(C(=O)c1ccc(=O)n(C)n1)c1c(N)n(Cc2ccccc2)c(=O)[nH]c1=O | > 59.5 |
| COc1ccc(C)cc1NCc1ccc([N+](=O)[O-])cc1 | 3.1 (≈ 11.4 µM) |
| COc1cc(NC(=O)C2CC2)c(OC)cc1NC(=O)c1ccco1 | 3.6 (≈ 10.9 µM) |
| O=C(NNC(=S)NC1CC2C=CC1C2)c1cccnc1 (configuration not stated) | > 43.3 |
| O=C(Cn1c(CO)nc2ccccc21)NCCc1ccccc1 | > 46.4 |
| Cc1cccc(C(=O)OC(C)CN2CCOCC2)c1.Cl (configuration not stated) | 38.9 |
| O=C(c1c(Cl)cccc1Cl)N1CCN(c2ncccn2)CC1 | > 50.6 |
| CC1(C)C2CCC1(CS(=O)(=O)Nc1ccccc1)C(=O)C2 (configuration not stated) | 42.8 (≈ 139 µM) |
| CC(C)c1ccc(NC(=O)CC2Oc3ccccc3NC2=O)cc1 (configuration not stated) | 1.3 (≈ 4.01 µM) |
| CCN(CC)CC#Cc1ccc(C)cc1.Cl | 17.1 |
| Cl.NC(=NCCc1ccccc1)c1cccc([N+](=O)[O-])c1 | > 45.9 |
| Cc1ccnc(NC(=O)CCCc2c[nH]c3ccccc23)c1 | 4.3 (≈ 14.7 µM) |
| O=c1c2c([N+](=O)[O-])cc([N+](=O)[O-])cc2sn1Cc1ccccc1 | 17.2 (≈ 51.9 µM) |
| Cn1c(SCC(=O)N2CCCC2)nc2ccccc21 | > 41.3 |

| SMILES | solubility kinetic [µg/mL] |
| --- | --- |
| O=c1c2ccccc2nc(/C=C/c2ccc(O)cc2)n1-c1ccccc1O | 5.2 (≈ 14.6 µM) |
| COc1cccc(OC)c1C(=O)N1CCNCC1.O=C(O)C(=O)O | 49.7 |
| CC1CCCC(NC(=S)NC(=O)c2ccco2)C1C (configuration not stated) | 5.4 (≈ 19.3 µM) |
| CC(NC(=O)CNC(=O)c1cccs1)c1cccc(C(F)(F)F)c1 (configuration not stated) | 12.6 (≈ 35.4 µM) |
| CCn1cc(C(=O)OCC(=O)Nc2ccccc2OC(F)F)c(=O)c2ccc(C)nc21 | 4.8 (≈ 11.1 µM) |
| Br.Cn1c(=N)n(CC(=O)c2ccc(F)cc2)c2ccccc21 | > 54.6 |
| NC(=O)Cn1cnc2nc3n(c2c1=O)CCC3 | > 35 |
| COc1ccc(CCNC2=NCCS2)cc1OC | 29.7 (≈ 112 µM) |
| COc1ccc(NC(=O)C2CCN(c3cnccn3)CC2)cc1OC | 24.7 (≈ 72.1 µM) |
| Cn1cccc1C(=O)OCC(=O)N1CCc2ccccc21 | 2.8 (≈ 9.85 µM) |
| O=C(Nc1nccs1)c1ccc(N2C(=O)[C@@H]3[C@H](C2=O)[C@H]2C=C[C@@H]3C2)cc1 | 6.1 (≈ 16.7 µM) |
| COc1ccccc1NC(=O)COc1cccnc1[N+](=O)[O-] | 4.3 (≈ 14.2 µM) |
| Cn1c(SCC(=O)Nc2cccnc2Cl)nnc1-c1ccco1 | > 52.5 |
| O=C(Cn1c(=S)[nH]c2ccccc2c1=O)N1CCc2ccccc2C1 | 3.9 (≈ 11.1 µM) |
| CC(=O)c1ccc(N2CCN(C3CCC(C(C)(C)C)CC3)CC2)cc1 (configuration not stated) | 0.8 (≈ 2.34 µM) |
| CCCCC(=O)Nc1ccccc1N1CCN(c2ccc(F)cc2)CC1 | 4.3 (≈ 12.1 µM) |
| O=[N+]([O-])c1cc(C(F)(F)F)ccc1NC1CCN(Cc2ccccc2)CC1 | 2.6 (≈ 6.85 µM) |
| COCCNc1nc(N)c([N+](=O)[O-])c(NCc2ccccc2)n1 | 4.9 (≈ 15.4 µM) |
| CC(Sc1ccccn1)C(=O)NC1CCCC1 (configuration not stated) | > 37.6 |
| O=C(/C=C/c1cccs1)NC1CCCC1 | > 33.2 |
| Cc1cccn2c(=O)nc(SCC(=O)NCc3ccco3)nc12 | > 49.6 |
| C=CCn1c(SCC(=O)NCC)nc2sc3c(c2c1=O)CCC3 | 37.5 (≈ 107 µM) |
| O=C(COC(=O)Cc1c(F)cccc1Cl)NC(=O)Nc1ccccc1F | 1.9 (≈ 4.96 µM) |
| O=C(CNS(=O)(=O)c1ccccc1)NCC(=O)N1CCCCC1 | > 50.9 |

| SMILES | solubility kinetic [µg/mL] |
| --- | --- |
| Nc1ccc(NC(=O)c2cccs2)cc1 | > 32.7 |
| Cc1c(F)cccc1NC(=O)c1ccc2c(c1)CCN2S(C)(=O)=O | 4.4 (≈ 12.6 µM) |
| NC(=O)c1cc(S(=O)(=O)NCCc2ccccc2)cs1 | 40.3 (≈ 130 µM) |
| CC1CC(C)CN(C(=O)CSc2nnc(N)s2)C1 (configuration not stated) | > 43 |
| O=[N+]([O-])c1cccnc1N1CCN(c2ccc(F)cc2)CC1 | 12.1 (≈ 40 µM) |
| COc1ccc(OC)c(S(=O)(=O)NCCCc2ccccc2)c1 | 27.4 (≈ 81.7 µM) |
| Cc1ccnc(NCc2cc(C)ccc2O)c1 | 6 (≈ 26.3 µM) |
| Cc1cccc(C(=O)Nc2ccc(C(=O)c3ccccc3)cc2)c1 | < 0.7 |
| COC(=O)c1c(NC(C)=O)sc(C(=O)Nc2ccccc2)c1C | 0.9 (≈ 2.71 µM) |
| CCOc1ccccc1NC(=O)c1ccc([N+](=O)[O-])cc1 | 2.7 (≈ 9.43 µM) |
| CCN1C(=O)CC(c2cccnc2)=Nc2ccccc21 | > 39.8 |
| Cc1ccc2nc(-c3cc(-c4ccccc4)no3)cn2c1 | 0.3 (≈ 1.09 µM) |
| CN(C)C(=O)C(CCN1CCC(O)(c2ccc(Cl)cc2)CC1)(c1ccccc1)c1ccccc1.Cl | > 77 |
| COc1cc2ccccc2cc1C(=O)NC(=S)Nc1cccc(C(=O)O)c1C | 18.3 (≈ 46.4 µM) |
| CCC(C)[C@H](NC(=O)N1CCCCC1)C(=O)OC (some centres not stated) | > 38.5 |
| COc1ccc(-c2cc3nc(CCl)[nH]c(=O)c3s2)cc1 | 2.8 (≈ 9.13 µM) |
| O=S(=O)(NCc1ccc2c(c1)OCO2)c1ccc(F)c(F)c1 | 47.7 (≈ 146 µM) |
| Cc1ccc(CNC(=O)C(C)C2Sc3ccccc3NC2=O)cc1 (configuration not stated) | 1.6 (≈ 4.7 µM) |
| COC(=O)NCC(c1ccco1)N1CCN(c2ccc(OC)cc2)CC1 (configuration not stated) | > 53.9 |
| O=c1nc2n(c3ncccc13)CCCCC2 | > 32.3 |
| COc1ccccc1CNC(=O)COc1ccc2c(c1)CCC2 | 20.5 (≈ 65.8 µM) |
